Measurements as given in patent US6358885B1, “Substituted phenylheterocyclic herbicides” (Mississippi State University, priority 1992, dated 2002).

How the values were obtained:
cheatgrass = assay: Test B preemergence/postemergence greenhouse plant response rating 0 to 10; format: in vivo, Bromus secalinus; details: for Plant response rating, Cheatgrass: 0 to 10 scale
Outline: (§1)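 Test chemicals, dissolved in a non-phytotoxic solvent, were applied to soil at planting and, at the same time, over foliage of seedlings at the one to four leaf stage.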

corn = assay: as above; format: in vivo, Zea mays; details: for Plant response rating, Corn: 0 to 10 scale
Outline: as §1

cotton [1] = assay: as above; format: in vivo, Gossypium hirsutum; details: for Plant response rating, Cotton: 0 to 10 scale
Outline: as §1

lambsquarters [2] = assay: as above; format: in vivo, Chenopodium album; details: for Plant response rating, Lambsquarter: 0 to 10 scale
Outline: as §1

rice = assay: as above; format: in vivo, Oryza sativa; details: for Plant response rating, Rice: 0 to 10 scale
Outline: as §1

wheat = assay: as above; format: in vivo, Triticum aestivum; details: for Plant response rating, Wheat: 0 to 10 scale
Outline: as §1

wild oat = assay: as above; format: in vivo, Avena fatua; details: for Plant response rating, Wild oat: 0 to 10 scale
Outline: as §1

bedstraw = assay: Test C preemergence/postemergence greenhouse plant response rating 0 to 100; format: in vivo, Galium aparine; details: for Plant response rating, Bedstraw: 125 g/ha, 0 to 100 scale
Outline: (§2)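 Compounds in non-phytotoxic solvent applied preemergence to sandy loam one day after planting, postemergence at the 1–4 leaf stage, or to ~2.5 cm floodwater over silt loam.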

cotton [3] = assay: as above; format: in vivo, Gossypium hirsutum; details: for Plant response rating, Cotton: 125 g/ha, 0 to 100 scale
Outline: as §2

crabgrass = assay: as above; format: in vivo, Digitaria sanguinalis; details: for Plant response rating, Crabgrass: 125 g/ha, 0 to 100 scale
Outline: as §2

downy brome = assay: as above; format: in vivo, Bromus tectorum; details: for Plant response rating Downy Brome: 125 g/ha, 0 to 100 scale
Outline: as §2

giant foxtail = assay: as above; format: in vivo, Setaria faberii; details: for Plant response rating, Giant foxtail: 125 g/ha, 0 to 100 scale
Outline: as §2

lambsquarters [4] = assay: as above; format: in vivo, Chenopodium album; details: for Plant response rating Lambsquarters: 125 g/ha, 0 to 100 scale
Outline: as §2

sorghum = assay: as above; format: in vivo, Sorghum bicolor; details: for Plant response rating, Sorghum: 125 g/ha, 0 to 100 scale
Outline: as §2

sugar beet = assay: as above; format: in vivo, Beta vulgaris; details: for Plant response rating, Sugar beet: 125 g/ha, 0 to 100 scale
Outline: as §2

velvetleaf = assay: as above; format: in vivo, Abutilon theophrasti; details: for Plant response rating, Velvetleaf: 125 g/ha, 0 to 100 scale
Outline: as §2

duck salad = assay: Test C flood test plant response rating 0 to 100; format: in vivo, Heteranthera limosa
Outline: as §2

barnyardgrass = assay: Test C flood test plant response rating 0 to 100; format: in vivo, Echinochloa crus-galli
Outline: as §2

[5] = POSTEMERGENCE section, flood test, Rate 2 g/ha
[6] = Rate 8 g/ha, under POSTEMERGENCE head (flood test species)
[7] = Rate 31 g/ha, under POSTEMERGENCE head (flood test species)
[8] = flood test species listed under POSTEMERGENCE, 125 g/ha, 0 to 100 scale

COCOc1cc(-c2nn3c(c2Cl)CCCC3)c(F)cc1Cl [Compound 58]
Plant response rating, Cheatgrass (cheatgrass; POSTEMERGENCE, Rate 50 g/ha): 7 | Plant response rating, Cheatgrass (cheatgrass; PREEMERGENCE, Rate 50 g/ha): 4 | Plant response rating (0 to 10 scale), Cheatgrass (cheatgrass; PREEMERGENCE, Rate 200 g/ha): 8 | Plant response rating, Cheatgrass (cheatgrass; Rate 200 g/ha, POSTEMERGENCE): 10 | Plant response rating, Corn (corn; POSTEMERGENCE, Rate 50 g/ha): 5 | Plant response rating, Corn (corn; PREEMERGENCE, Rate 50 g/ha): 2 | Plant response rating (0 to 10 scale), Corn (corn; PREEMERGENCE, Rate 200 g/ha): 4 | Plant response rating, Corn (corn; Rate 200 g/ha, POSTEMERGENCE): 6 | Plant response rating, Cotton (cotton [1]; POSTEMERGENCE, Rate 50 g/ha): 10 | Plant response rating, Cotton (cotton [1]; PREEMERGENCE, Rate 50 g/ha): 0 | Plant response rating (0 to 10 scale), Cotton (cotton [1]; PREEMERGENCE, Rate 200 g/ha): 0 | Plant response rating, Cotton (cotton [1]; Rate 200 g/ha, POSTEMERGENCE): 10 | Plant response rating, Lambsquarter (lambsquarters [2]; POSTEMERGENCE, Rate 50 g/ha): 10 | Plant response rating, Lambsquarter (lambsquarters [2]; PREEMERGENCE, Rate 50 g/ha): 10 | Plant response rating (0 to 10 scale), Lambsquarter (lambsquarters [2]; PREEMERGENCE, Rate 200 g/ha): 10 | Plant response rating, Lambsquarter (lambsquarters [2]; Rate 200 g/ha, POSTEMERGENCE): 10 | Plant response rating, Rice (rice; POSTEMERGENCE, Rate 50 g/ha): 4 | Plant response rating, Rice (rice; PREEMERGENCE, Rate 50 g/ha): 0 | Plant response rating (0 to 10 scale), Rice (rice; PREEMERGENCE, Rate 200 g/ha): 0 | Plant response rating, Rice (rice; Rate 200 g/ha, POSTEMERGENCE): 5 | Plant response rating, Wheat (wheat; POSTEMERGENCE, Rate 50 g/ha): 7 | Plant response rating, Wheat (wheat; PREEMERGENCE, Rate 50 g/ha): 2 | Plant response rating (0 to 10 scale), Wheat (wheat; PREEMERGENCE, Rate 200 g/ha): 7 | Plant response rating, Wheat (wheat; Rate 200 g/ha, POSTEMERGENCE): 8 | Plant response rating, Wild oat (wild oat; POSTEMERGENCE, Rate 50 g/ha): 7 | Plant response rating, Wild oat (wild oat; PREEMERGENCE, Rate 50 g/ha): 6 | Plant response rating (0 to 10 scale), Wild oat (wild oat; PREEMERGENCE, Rate 200 g/ha): 9 | Plant response rating, Wild oat (wild oat; Rate 200 g/ha, POSTEMERGENCE): 9 | Plant response rating, Bedstraw (bedstraw; POSTEMERGENCE): 100 | Plant response rating (0 to 100), Bedstraw (bedstraw; POSTEMERGENCE, Rate 2 g/ha): 60 | Plant response rating, Bedstraw (bedstraw; PREEMERGENCE): 70 | Plant response rating (0 to 100), Bedstraw (bedstraw; PREEMERGENCE, Rate 2 g/ha): 0 | Plant response rating (0 to 100), Bedstraw (bedstraw; Rate 8 g/ha, POSTEMERGENCE): 100 | Plant response rating (0 to 100), Bedstraw (bedstraw; Rate 8 g/ha, PREEMERGENCE): 10 | Plant response rating (0 to 100), Bedstraw (bedstraw; Rate 31 g/ha, PREEMERGENCE): 50 | Plant response rating, Cotton (cotton [3]; POSTEMERGENCE): 100 | Plant response rating (0 to 100), Cotton (cotton [3]; POSTEMERGENCE, Rate 2 g/ha): 95 | Plant response rating, Cotton (cotton [3]; PREEMERGENCE): 40 | Plant response rating (0 to 100), Cotton (cotton [3]; PREEMERGENCE, Rate 2 g/ha): 0 | Plant response rating (0 to 100), Cotton (cotton [3]; Rate 8 g/ha, POSTEMERGENCE): 100 | Plant response rating (0 to 100), Cotton (cotton [3]; Rate 8 g/ha, PREEMERGENCE): 0 | Plant response rating (0 to 100), Cotton (cotton [3]; Rate 31 g/ha, POSTEMERGENCE): 100 | Plant response rating (0 to 100), Cotton (cotton [3]; Rate 31 g/ha, PREEMERGENCE): 10 | Plant response rating, Crabgrass (crabgrass; POSTEMERGENCE): 70 | Plant response rating (0 to 100), Crabgrass (crabgrass; POSTEMERGENCE, Rate 2 g/ha): 20 | Plant response rating, Crabgrass (crabgrass; PREEMERGENCE): 100 | Plant response rating (0 to 100), Crabgrass (crabgrass; PREEMERGENCE, Rate 2 g/ha): 0 | Plant response rating (0 to 100), Crabgrass (crabgrass; Rate 8 g/ha, POSTEMERGENCE): 30 | Plant response rating (0 to 100), Crabgrass (crabgrass; Rate 8 g/ha, PREEMERGENCE): 0 | Plant response rating (0 to 100), Crabgrass (crabgrass; Rate 31 g/ha, POSTEMERGENCE): 60 | Plant response rating (0 to 100), Crabgrass (crabgrass; Rate 31 g/ha, PREEMERGENCE): 50 | Plant response rating Downy Brome (downy brome; POSTEMERGENCE): 90 | Plant response rating (0 to 100), Downy Brome (downy brome; POSTEMERGENCE, Rate 2 g/ha): 20 | Plant response rating Downy Brome (downy brome; PREEMERGENCE): 70 | Plant response rating (0 to 100), Downy Brome (downy brome; PREEMERGENCE, Rate 2 g/ha): 0 | Plant response rating (0 to 100), Downy Brome (downy brome; Rate 8 g/ha, POSTEMERGENCE): 40 | Plant response rating (0 to 100), Downy Brome (downy brome; Rate 8 g/ha, PREEMERGENCE): 0 | Plant response rating (0 to 100), Downy Brome (downy brome; Rate 31 g/ha, POSTEMERGENCE): 70 | Plant response rating (0 to 100), Downy Brome (downy brome; Rate 31 g/ha, PREEMERGENCE): 30 | Plant response rating, Giant foxtail (giant foxtail; POSTEMERGENCE): 100 | Plant response rating (0 to 100), Giant foxtail (giant foxtail; POSTEMERGENCE, Rate 2 g/ha): 20 | Plant response rating, Giant foxtail (giant foxtail; PREEMERGENCE): 100 | Plant response rating (0 to 100), Giant foxtail (giant foxtail; PREEMERGENCE, Rate 2 g/ha): 0 | Plant response rating (0 to 100), Giant foxtail (giant foxtail; Rate 8 g/ha, POSTEMERGENCE): 40 | Plant response rating (0 to 100), Giant foxtail (giant foxtail; Rate 8 g/ha, PREEMERGENCE): 0 | Plant response rating (0 to 100), Giant foxtail (giant foxtail; Rate 31 g/ha, POSTEMERGENCE): 70 | Plant response rating (0 to 100), Giant foxtail (giant foxtail; Rate 31 g/ha, PREEMERGENCE): 60 | Plant response rating Lambsquarters (lambsquarters [4]; POSTEMERGENCE): 100 | Plant response rating (0 to 100), Lambsquarters (lambsquarters [4]; POSTEMERGENCE, Rate 2 g/ha): 50 | Plant response rating Lambsquarters (lambsquarters [4]; PREEMERGENCE): 100 | Plant response rating (0 to 100), Lambsquarters (lambsquarters [4]; PREEMERGENCE, Rate 2 g/ha): 0 | Plant response rating (0 to 100), Lambsquarters (lambsquarters [4]; Rate 8 g/ha, POSTEMERGENCE): 85 | Plant response rating (0 to 100), Lambsquarters (lambsquarters [4]; Rate 8 g/ha, PREEMERGENCE): 100 | Plant response rating (0 to 100), Lambsquarters (lambsquarters [4]; Rate 31 g/ha, POSTEMERGENCE): 100 | Plant response rating (0 to 100), Lambsquarters (lambsquarters [4]; Rate 31 g/ha, PREEMERGENCE): 100 | Plant response rating, Sorghum (sorghum; POSTEMERGENCE): 85 | Plant response rating (0 to 100), Sorghum (sorghum; POSTEMERGENCE, Rate 2 g/ha): 30 | Plant response rating, Sorghum (sorghum; PREEMERGENCE): 20 | Plant response rating (0 to 100), Sorghum (sorghum; PREEMERGENCE, Rate 2 g/ha): 0 | Plant response rating (0 to 100), Sorghum (sorghum; Rate 8 g/ha, POSTEMERGENCE): 50 | Plant response rating (0 to 100), Sorghum (sorghum; Rate 8 g/ha, PREEMERGENCE): 0 | Plant response rating (0 to 100), Sorghum (sorghum; Rate 31 g/ha, POSTEMERGENCE): 50 | Plant response rating (0 to 100), Sorghum (sorghum; Rate 31 g/ha, PREEMERGENCE): 10 | Plant response rating, Sugar beet (sugar beet; POSTEMERGENCE): 100 | Plant response rating (0 to 100), Sugar beet (sugar beet; POSTEMERGENCE, Rate 2 g/ha): 100 | Plant response rating, Sugar beet (sugar beet; PREEMERGENCE): 100 | Plant response rating (0 to 100), Sugar beet (sugar beet; PREEMERGENCE, Rate 2 g/ha): 10 | Plant response rating (0 to 100), Sugar beet (sugar beet; Rate 8 g/ha, POSTEMERGENCE): 100 | Plant response rating (0 to 100), Sugar beet (sugar beet; Rate 8 g/ha, PREEMERGENCE): 85 | Plant response rating (0 to 100), Sugar beet (sugar beet; Rate 31 g/ha, POSTEMERGENCE): 100 | Plant response rating (0 to 100), Sugar beet (sugar beet; Rate 31 g/ha, PREEMERGENCE): 90 | Plant response rating, Velvetleaf (velvetleaf; POSTEMERGENCE): 100 | Plant response rating (0 to 100), Velvetleaf (velvetleaf; POSTEMERGENCE, Rate 2 g/ha): 40 | Plant response rating, Velvetleaf (velvetleaf; PREEMERGENCE): 100 | Plant response rating (0 to 100), Velvetleaf (velvetleaf; PREEMERGENCE, Rate 2 g/ha): 0 | Plant response rating (0 to 100), Velvetleaf (velvetleaf; Rate 8 g/ha, POSTEMERGENCE): 75 | Plant response rating (0 to 100), Velvetleaf (velvetleaf; Rate 8 g/ha, PREEMERGENCE): 40 | Plant response rating (0 to 100), Velvetleaf (velvetleaf; Rate 31 g/ha, POSTEMERGENCE): 80 | Plant response rating (0 to 100), Velvetleaf (velvetleaf; Rate 31 g/ha, PREEMERGENCE): 100 | Plant response rating (0 to 100), Duck salad (duck salad; [5]): 0 | Plant response rating (0 to 100), Duck salad (duck salad; [6]): 20 | Plant response rating (0 to 100), Duck salad (duck salad; [7]): 80 | Plant response rating Duck salad (duck salad; [8]): 85 | Plant response rating (0 to 100), Barnyardgrass 2 (barnyardgrass; [5]): 0 | Plant response rating (0 to 100), Barnyardgrass 2 (barnyardgrass; [6]): 95 | Plant response rating (0 to 100), Barnyardgrass 2 (barnyardgrass; [7]): 100 | Plant response rating Barnyardgrass 2 (barnyardgrass; [8]): 100
